# Structures can show the parent of a compound that is named as a salt.
# Test system: eyes of patients with pupil size in dim light of greater than 7 mm
# Assay: Example 2 clinical study: monocular high contrast visual acuity under photopic conditions (100% tint chart)
# Assay type: in vivo, humans
# Experimental: Sixteen patients were randomized into four groups (of four subjects each). Each group was treated on three successive study visits separated by at least 4 days with one drop of ophthalmic oxymetazoline solution (Visine LR®) in each eye followed by one drop test article in each eye. The test article was a 0.2% (w/v) phentolamine mesylate solution, 0.4% (w/v) phentolamine mesylate solution, 0.8% (w/v) phentolamine mesylate solution, or placebo. Test articles contained the designed amount of phentolamine mesylate in a solution of Tears Naturale II® (from Alcon Labs). Placebo was just Tears Naturale II® (from Alcon Labs). Tears Naturale II® (from Alcon Labs) contains Dextran 70 (0.1% by weight), Hydroxypropyl Methylcellulose 2910 (0.3% by weight), Polyquarternium-1 (0.001% by weight), potassium chloride, water (purified), sodium borate, sodium chloride, and hydrochloric acid and/or sodium hydroxide as necessary to adjust the pH. The patients' eye redness and pupil diameters were recorded at baseline (i.e., prior to treatment administration), and at 30 minutes, 1 hour, 2 hours, 4 hours, and 8 hours after administration of test articles. The incidence of any treatment-emergent adverse events was also recorded. Total study duration was approximately nine hours.
# Eye redness of patients' eyes was evaluated by the research assistant and recorded as a single integer of value 0 (no redness) to 4 (extreme redness) at baseline and each time point after treatment. Pupil diameters were measured to within 0.1 mm for each eye at baseline and each subsequent time point using a NeurOptics™ pupilometer. Monocular high contrast visual acuity was measured for each eye under photopic conditions at baseline and each subsequent time point in a darkened room using a Precision Vision™ High Contrast (100% tint) Visual Acuity Chart (Catalog #2102) backlit by the Precision Vision Illumination Box. Monocular low contrast visual acuity was measured for each eye under photopic conditions at baseline and each subsequent time point in a darkened room using a Precision Vision™ Low Contrast (5% tint) Visual Acuity Chart (Catalog #2186) backlit by the Precision Vision Illumination Box. Effect of treatment on glare was assessed using an experimental test method consisting of a panel with a high wattage central light emitting diode (LED) and a set of 7 lower wattage red LEDs radiating horizontally and vertically from the central light.
# Comparisons of changes in mean values within treatment groups were tested for significance using two-tailed paired two sample t-tests with a threshold for significance set at p<0.01 (Bonferroni Correction for multiple paired t-tests). Differences between treatment groups with respect to mean values for pupil size over the course of the study were tested for significance using repeated measure ANOVA (which discards data from subjects lacking any data points). Differences in mean eye redness between treatment groups were evaluated using Kruskal-Wallis nonparametric testing. Differences in means between treatment groups at individual time points were tested for significance using one-way ANOVA.
# [1] = 0.2% (w/v) solution, 30 min after treatment
# [2] = 0.2% (w/v) solution, 1 hour after treatment
# [3] = 0.2% (w/v) solution, 2 hours after treatment
# [4] = 0.2% (w/v) solution, 4 hours after treatment
# [5] = 0.2% (w/v) solution, 8 hours after treatment
# [6] = 0.2% (w/v) solution, Baseline, prior to treatment
# [7] = 0.4% (w/v) solution, 30 min after treatment
# [8] = 0.4% (w/v) solution, 1 hour after treatment
# [9] = 0.4% (w/v) solution, 2 hours after treatment
# [10] = 0.4% (w/v) solution, 4 hours after treatment
# [11] = 0.4% (w/v) solution, 8 hours after treatment
# [12] = 0.4% (w/v) solution, Baseline, prior to treatment
# [13] = 0.8% (w/v) solution, 30 min after treatment
# [14] = 0.8% (w/v) solution, 1 hour after treatment
# [15] = 0.8% (w/v) solution, 2 hours after treatment
# [16] = 0.8% (w/v) solution, 4 hours after treatment
# [17] = 0.8% (w/v) solution, 8 hours after treatment
# [18] = 0.8% (w/v) solution, Baseline, prior to treatment
smiles,measurement,setting,value
"Cc1ccc(N(CC2=NCCN2)c2cccc(O)c2)cc1 [Phentolamine Mesylate, phentolamine mesylate]",Maximum high contrast visual acuity,[1],0.22 LogMar
same,Mean high contrast visual acuity,[1],0.05 LogMar
same,Minimum high contrast visual acuity,[1],−0.32 LogMar
same,Maximum high contrast visual acuity,[2],0.22 LogMar
same,Mean high contrast visual acuity,[2],0.08 LogMar
same,Minimum high contrast visual acuity,[2],−0.20 LogMar
same,Maximum high contrast visual acuity,[3],0.26 LogMar
same,Mean high contrast visual acuity,[3],0.08 LogMar
same,Minimum high contrast visual acuity,[3],−0.22 LogMar
same,Maximum high contrast visual acuity,[4],0.22 LogMar
same,Mean high contrast visual acuity,[4],0.09 LogMar
same,Minimum high contrast visual acuity,[4],−0.20 LogMar
same,Maximum high contrast visual acuity,[5],0.22 LogMar
same,Mean high contrast visual acuity,[5],0.08 LogMar
same,Minimum high contrast visual acuity,[5],−0.32 LogMar
same,Maximum high contrast visual acuity,[6],0.22 LogMar
same,Mean high contrast visual acuity,[6],0.04 LogMar
same,Minimum high contrast visual acuity,[6],−0.32 LogMar
same,Maximum high contrast visual acuity,[7],0.22 LogMar
same,Mean high contrast visual acuity,[7],0.12 LogMar
same,Minimum high contrast visual acuity,[7],−0.20 LogMar
same,Maximum high contrast visual acuity,[8],0.26 LogMar
same,Mean high contrast visual acuity,[8],0.11 LogMar
same,Minimum high contrast visual acuity,[8],−0.20 LogMar
same,Maximum high contrast visual acuity,[9],0.30 LogMar
same,Mean high contrast visual acuity,[9],0.14 LogMar
same,Minimum high contrast visual acuity,[9],−0.10 LogMar
same,Maximum high contrast visual acuity,[10],0.30 LogMar
same,Mean high contrast visual acuity,[10],0.15 LogMar
same,Minimum high contrast visual acuity,[10],−0.11 LogMar
same,Maximum high contrast visual acuity,[11],0.30 LogMar
same,Mean high contrast visual acuity,[11],0.13 LogMar
same,Minimum high contrast visual acuity,[11],−0.18 LogMar
same,Maximum high contrast visual acuity,[12],0.22 LogMar
same,Mean high contrast visual acuity,[12],0.09 LogMar
same,Minimum high contrast visual acuity,[12],−0.24 LogMar
same,Maximum high contrast visual acuity,[13],0.22 LogMar
same,Mean high contrast visual acuity,[13],0.11 LogMar
same,Minimum high contrast visual acuity,[13],−0.16 LogMar
same,Maximum high contrast visual acuity,[14],0.26 LogMar
same,Mean high contrast visual acuity,[14],0.12 LogMar
same,Minimum high contrast visual acuity,[14],−0.10 LogMar
same,Maximum high contrast visual acuity,[15],0.30 LogMar
same,Mean high contrast visual acuity,[15],0.12 LogMar
same,Minimum high contrast visual acuity,[15],−0.16 LogMar
same,Maximum high contrast visual acuity,[16],0.30 LogMar
same,Mean high contrast visual acuity,[16],0.12 LogMar
same,Minimum high contrast visual acuity,[16],−0.20 LogMar
same,Maximum high contrast visual acuity,[17],0.30 LogMar
same,Mean high contrast visual acuity,[17],0.13 LogMar
same,Minimum high contrast visual acuity,[17],−0.20 LogMar
same,Maximum high contrast visual acuity,[18],0.22 LogMar
same,Mean high contrast visual acuity,[18],0.06 LogMar
same,Minimum high contrast visual acuity,[18],−0.41 LogMar
same,maximal mean increase in high contrast visual acuity,"0.8%, at 4 and 8 hours",0.06 Log Mar
same,improvement in high contrast vision,"0.8%, at 4 and 8 hours, equivalent of the maximal mean increase",~3 letters on a Snellen chart

# Reference: patent US11000509B2, “Methods and compositions for daily ophthalmic administration of phentolamine to improve visual performance” (Ocuphire Pharma, Inc., priority 2013, dated 2021)
